In publication PMC9154192 (PLoS Biology, 2022):
≈ marks a conversion by molar mass, not a printed value. Where “and” joins values, the source holds several entries; their conditions need not be identical. Equal entries are not always repeated. Where two headings read alike, the source gives them in different places.

Columns and labels:
M. bovis BCG strains = assay: organism not typed; type: cell-based, Mycobacterium bovis BCG
[1] = type: cell-based
[2] = type: in vivo, female rats; parameters: unit not given here; conditions: for Plasma concentration, individual animals: female rats 1-6, single oral 100 mg/kg, 100 mg/kg; for Plasma concentration, Average: female rats, average of 6 animals
[3] = TA100, 4.88 μg/plate, absence of S9 mix
[4] = TA100, 4.88 μg/plate, presence of S9 mix
[5] = TA100, 78.1 μg/plate, absence of S9 mix
[6] = TA100, 78.1 μg/plate, presence of S9 mix
[7] = TA100, 313 μg/plate, absence of S9 mix
[8] = TA100, 313 μg/plate, presence of S9 mix
[9] = TA1535, 4.88 μg/plate, absence of S9 mix
[10] = TA1535, 4.88 μg/plate, presence of S9 mix
[11] = TA1535, 78.1 μg/plate, absence of S9 mix
[12] = TA1535, 78.1 μg/plate, presence of S9 mix
[13] = TA1535, 313 μg/plate, absence of S9 mix
[14] = TA1535, 313 μg/plate, presence of S9 mix
[15] = TA1537, 4.88 μg/plate, absence of S9 mix
[16] = TA1537, 4.88 μg/plate, presence of S9 mix
[17] = TA1537, 78.1 μg/plate, absence of S9 mix
[18] = TA1537, 78.1 μg/plate, presence of S9 mix
[19] = TA1537, 313 μg/plate, absence of S9 mix
[20] = TA1537, 313 μg/plate, presence of S9 mix
[21] = WP2uvrA (pKM101), 4.88 μg/plate, absence of S9 mix
[22] = WP2uvrA (pKM101), 4.88 μg/plate, presence of S9 mix
[23] = WP2uvrA (pKM101), 78.1 μg/plate, absence of S9 mix
[24] = WP2uvrA (pKM101), 78.1 μg/plate, presence of S9 mix
[25] = WP2uvrA (pKM101), 313 μg/plate, absence of S9 mix

`NNC(=O)c1ccncc1` [INH, isoniazid, reference compound] showed an MIC (M. bovis BCG strains) of 0.2 µg/mL (≈ 1.46 µM).
In the case of `CCCCOc1ccc2cc(CN3C(=O)CC[C@H]3C(=O)OC)c3cc(OC)c(OC)cc3c2c1` [PP2S, Methyl (S)-1-((3-butoxy-6,7-dimethoxyphenanthren-9-yl)methyl)-5-oxopyrrolidine-2-carboxylate], the “Individual revertant colony counts” value [1, 3] was 77 colonies per plate and 71 colonies per plate, the Mean revertant colonies [1, 3] was 74 colonies per plate and the “Individual revertant colony counts” value [1, 4] was 116 colonies per plate and 111 colonies per plate. For the same compound, the Mean revertant colonies [1, 4] was 114 colonies per plate, the “Individual revertant colony counts” value [1, 5] was 78 colonies per plate and 85 colonies per plate and the Mean revertant colonies [1, 5] was 82 colonies per plate. The “Individual revertant colony counts” value [1, 6] was 111 colonies per plate and 107 colonies per plate, the Mean revertant colonies [1, 6] was 109 colonies per plate and the “Individual revertant colony counts” value [1, 7] was 98 colonies per plate and 95 colonies per plate. For the same compound, the Mean revertant colonies [1, 7] was 97 colonies per plate, the “Individual revertant colony counts” value [1, 8] was 111 colonies per plate and 107 colonies per plate and the Mean revertant colonies [1, 8] was 109 colonies per plate. For the same compound, the “Individual revertant colony counts” value [1, 9] was 18 colonies per plate and 19 colonies per plate, the Mean revertant colonies [1, 9] was 19 colonies per plate and the “Individual revertant colony counts” value [1, 10] was 10 colonies per plate and 12 colonies per plate. The Mean revertant colonies [1, 10] was 11 colonies per plate, the “Individual revertant colony counts” value [1, 11] was 18 colonies per plate and 19 colonies per plate and the Mean revertant colonies [1, 11] was 19 colonies per plate. For the same compound, the “Individual revertant colony counts” value [1, 12] was 17 colonies per plate and 15 colonies per plate, the Mean revertant colonies [1, 12] was 16 colonies per plate and the “Individual revertant colony counts” value [1, 13] was 15 colonies per plate and 17 colonies per plate. For the same compound, the Mean revertant colonies [1, 13] was 16 colonies per plate, the “Individual revertant colony counts” value [1, 14] was 16 colonies per plate and 15 colonies per plate and the Mean revertant colonies [1, 14] was 16 colonies per plate. For the same compound, the “Individual revertant colony counts” value [1, 15] was 10 colonies per plate and 11 colonies per plate, the Mean revertant colonies [1, 15] was 11 colonies per plate and the “Individual revertant colony counts” value [1, 16] was 16 colonies per plate and 14 colonies per plate. The Mean revertant colonies [1, 16] was 15 colonies per plate, the “Individual revertant colony counts” value [1, 17] was 11 colonies per plate and 10 colonies per plate and the Mean revertant colonies [1, 17] was 11 colonies per plate. For the same compound, the “Individual revertant colony counts” value [1, 18] was 18 colonies per plate and 17 colonies per plate, the Mean revertant colonies [1, 18] was 18 colonies per plate and the “Individual revertant colony counts” value [1, 19] was 9 colonies per plate and 8 colonies per plate. For the same compound, the Mean revertant colonies [1, 19] was 9 colonies per plate, the “Individual revertant colony counts” value [1, 20] was 18 colonies per plate and 19 colonies per plate and the Mean revertant colonies [1, 20] was 19 colonies per plate. For the same compound, the “Individual revertant colony counts” value [1, 21] was 92 colonies per plate and 86 colonies per plate, the Mean revertant colonies [1, 21] was 89 colonies per plate and the “Individual revertant colony counts” value [1, 22] was 149 colonies per plate and 156 colonies per plate. The Mean revertant colonies [1, 22] was 153 colonies per plate, the “Individual revertant colony counts” value [1, 23] was 87 colonies per plate and 94 colonies per plate and the Mean revertant colonies [1, 23] was 91 colonies per plate. The “Individual revertant colony counts” value [1, 24] was 156 colonies per plate and 167 colonies per plate, the Mean revertant colonies [1, 24] was 162 colonies per plate and the “Individual revertant colony counts” value [1, 25] was 91 colonies per plate and 93 colonies per plate. The Mean revertant colonies [1, 25] was 92 colonies per plate, the “Individual revertant colony counts” value ([1]; WP2uvrA (pKM101), 313 μg/plate, presence of S9 mix) was 162 colonies per plate and 165 colonies per plate and the genotoxicity ([1]; bacterial reverse mutation test) was “did not show genotoxicity”. The “Plasma concentration, individual animals” value ([2]; 2 h) was 237.59, the “Plasma concentration, individual animals” value ([2]; 4 h) was 316.47 and the “Plasma concentration, individual animals” value ([2]; 6 h) was 323.47. For the same compound, the “Plasma concentration, individual animals” value ([2]; 8 h) was 253.32, the “Plasma concentration, individual animals” value ([2]; 10 h) was 217.50 and the “Plasma concentration, individual animals” value ([2]; 12 h) was 210.07. The “Plasma concentration, individual animals” value ([2]; 14 h) was 174.31, the “Plasma concentration, individual animals” value ([2]; 16 h) was 211.29 and the “Plasma concentration, individual animals” value ([2]; 18 h) was 122.20. For the same compound, the “Plasma concentration, individual animals” value ([2]; 20 h) was 116.07, the “Plasma concentration, individual animals” value ([2]; 22 h) was 87.81 and the “Plasma concentration, individual animals” value ([2]; 24 h) was 63.19. The “Plasma concentration, Average” value ([2]; single oral 100 mg/kg, 2 h) was 320.00, the “Plasma concentration, Average” value ([2]; single oral 100 mg/kg, 4 h) was 432.00 and the “Plasma concentration, Average” value ([2]; single oral 100 mg/kg, 6 h) was 276.00. The “Plasma concentration, Average” value ([2]; single oral 100 mg/kg, 8 h) was 154.00, the “Plasma concentration, Average” value ([2]; single oral 100 mg/kg, 10 h) was 132.00 and the “Plasma concentration, Average” value ([2]; single oral 100 mg/kg, 12 h) was 110.00. The “Plasma concentration, Average” value ([2]; single oral 100 mg/kg, 14 h) was 97.00, the “Plasma concentration, Average” value ([2]; single oral 100 mg/kg, 16 h) was 81.00 and the “Plasma concentration, Average” value ([2]; single oral 100 mg/kg, 18 h) was 78.00. For the same compound, the “Plasma concentration, Average” value ([2]; single oral 100 mg/kg, 20 h) was 67.00, the “Plasma concentration, Average” value ([2]; single oral 100 mg/kg, 22 h) was 52.00 and the “Plasma concentration, Average” value ([2]; single oral 100 mg/kg, 24 h) was 35.00. For the same compound, the “Plasma concentration, Average” value ([2]; single oral 150 mg/kg, 18 h) was 85.00, the “Plasma concentration, Average” value ([2]; single oral 150 mg/kg, 20 h) was 76.00 and the “Plasma concentration, Average” value ([2]; single oral 150 mg/kg, 22 h) was 63.00. For the same compound, the “Plasma concentration, Average” value ([2]; single oral 150 mg/kg, 24 h) was 42.00.
